From patent US20160244679A1, “SELECTIVE LIQUID-LIQUID EXTRACTION OF OXIDATIVE DESULFURIZATION REACTION PRODUCTS” (SAUDI ARABIAN OIL COMPANY, priority 2011, published 2016) come the findings set out here.

Type in all cases: physicochemical
The nature of data set [1]: Batch liquid-liquid extraction of oxidized model diesel with 50 W % aqueous acetic acid, gas chromatographic analysis (Example 1, Table 10A). To be noted: for total extraction: two batch extractions, solvent-to-model diesel about 1:1, 23° C., 1 atmosphere; for co-extraction: after both extractions. As to the method:
(§1) A quantity of 100 mL of a model diesel feed formed of xylene, DBT, DBT sulfoxide and DBT sulfone (with a total sulfur content of 1635 ppmw) was oxidized by 30 W % aqueous hydrogen peroxide at a temperature of 37° C. and at a pressure of 1 atmosphere for a period of 70 minutes with solid ZnO catalyst (1.2 g) and a ratio of oxidant (H2O2) to organic sulfur of 4:1 in acetic acid, about 10 mL. After the sold catalyst settled, the model diesel was removed for extraction of sulfoxidation products and removal of aqueous H2O2 using an embodiment of the selective solvent formulation of the present invention.
DBT sulfoxide and DBT sulfone were extracted using a selective solvent formulation of 50 W % aqueous acetic acid. Two batch extractions were sequentially conducted using a solvent-to-model diesel ratio of about 1:1 at a temperature of 23° C. and at a pressure of 1 atmosphere for a period of 2 minutes, during which the contents were stirred. The total extraction of DBT sulfoxide and DBT sulfone was 95 W % and 55 W % respectively. Furthermore, the co-extraction of xylene was limited to 1.9 W % after both extractions, and the co-extraction of DBT (not oxidized) was limited to 13.2 W % after both extractions. The total sulfur measured by sulfur speciation (using an ANTEK Model 9000 analyzer commercially available from Antek Instruments, Inc., Houston, Tex. USA) determined that the overall sulfur content was reduced by 55 W % as shown at Table 10B.

Data set [2] is described as follows: Batch liquid-liquid extraction of oxidized model diesel with 70 W % aqueous formic acid, gas chromatography (Example 2, Table 11A). To be noted: for total extraction: two batch extractions, about 1:1, 23° C., 1 atmosphere. As to the method: as §1
A quantity of oxidized model diesel feed as used in Example 1 was subjected to extraction to remove DBT sulfoxide and DBT sulfone using a selective solvent formulation of 70 W % aqueous formic acid. Two batch extractions were sequentially conducted using a solvent to model diesel ratio of about 1:1 at a temperature of 23° C. and at a pressure of 1 atmosphere for a period of 2 minutes, during which the contents were stirred. The total extraction of DBT sulfoxide and DBT sulfone was 94 W % and 56 W % respectively. Furthermore, the co-extraction of xylene was limited to 2 W % after the first extraction, and increased by 3.8 W % after the second extraction, based on the normalization percentage of the peak regions for the GC analysis for each extraction. The normalization method is qualitative and quasi-quantitative, so that the peak area varies. The slight positive (3.8%) of xylene is due to the normalization of the sum of all peaks and it was changed by material balance variation and/or with measurement error.
The co-extraction of DBT (not oxidized) was limited to 10 W % after both extractions. The total sulfur measured by sulfur speciation determined that the overall sulfur content was reduced by 56 W % as shown in Table 11B.

Data set [3] is described as follows: Batch liquid-liquid extraction of oxidized model diesel with 50 W % aqueous methanol, gas chromatography (Example 3, Table 12A). As to the method:
as §1
A quantity of oxidized model diesel feed as used in Example 1 was subjected to extraction to remove DBT sulfoxide and DBT sulfone using a selective solvent formulation of 50 W % aqueous methanol. One extraction was conducted using a solvent to model diesel ratio of about 1:1 at a temperature of 23° C. and at a pressure of 1 atmosphere for a period of 2 minutes, during which the contents were stirred. The total extraction of DBT sulfoxide was 51.5 W %. […] The co-extraction of DBT (not oxidized) was limited to 3.1 W %. The total sulfur measured by sulfur speciation determined that the overall sulfur content was reduced by 16 W % as shown at Table 12B.

Where [4] appears, read: 50 W % aqueous acetic acid, 2 minutes.
Setting [5] is: Model diesel oxidized, before extraction.
The mark [6] stands for this setting: after 1st extraction, 50 W % aqueous acetic acid.
[7] abbreviates: after 1st extraction, 50 W % aqueous acetic acid, solvent:diesel about 1:1, 23° C., 2 minutes.
[8] abbreviates: after 2nd extraction, 50 W % aqueous acetic acid.
Where [9] appears, read: after 2nd extraction, 50 W % aqueous acetic acid, solvent:diesel about 1:1, 23° C., 2 minutes.
[10] abbreviates: 70 W % aqueous formic acid, 2 minutes.
[11] abbreviates: after 1st extraction, 70 W % aqueous formic acid.
Where [12] appears, read: after 1st extraction, 70 W % aqueous formic acid, solvent:diesel about 1:1, 23° C., 2 minutes.
The mark [13] stands for this setting: after 2nd extraction, 70 W % aqueous formic acid.
[14] abbreviates: after 2nd extraction, 70 W % aqueous formic acid, solvent:diesel about 1:1, 23° C., 2 minutes.
Where [15] appears, read: after 1st extraction, 50 W % aqueous methanol.
Setting [16] is: after 1st extraction, 50 W % aqueous methanol, solvent:diesel about 1:1, 23° C., 2 minutes.
The mark [17] stands for this setting: 50 W % aqueous methanol, one extraction.

Regarding `O=S1(=O)c2ccccc2-c2ccccc21` [DBT sulfone, dibenzothiophene 5,5-dioxide], the total extraction in data set [1] (setting [4]) is listed as 55 W %; in data set [2] (setting [10]), 56 W %. In addition, the “GC abundance in model diesel” value in data set [1] (setting [5]) is recorded as 25.09 abundance units; in data set [1] (setting [7]), 19.15 abundance units; in data set [1] (setting [9]), 11.39 abundance units; in data set [2] (setting [5]), 25.09 abundance units; in data set [2] (setting [12]) it was 17.46 abundance units; in data set [2] (setting [14]), 11.14 abundance units. Moreover, the “GC abundance in model diesel” value was determined as 25.09 abundance units in data set [3] (setting [5]) and 24.49 abundance units in data set [3] (setting [16]). Further, the “change of GC abundance versus oxidized model diesel” value (shortened to “change”) is on record as “(−23.7%)” in data set [1] (setting [6]); “(−54.8%)” in data set [1] (setting [8]); “(−30.4%)” in data set [2] (setting [11]); “(−55.6%)” in data set [2] (setting [13]); “(−2.4%)” in data set [3] (setting [15]).

Take `[O-][s+]1c2ccccc2c2ccccc21` [DBT sulfoxide, dibenzothiophene 5-oxide]: the total extraction was 95 W % in data set [1] (setting [4]); 94 W % in data set [2] (setting [10]); 51.5 W % in data set [3] (50 W % aqueous methanol, one extraction, about 1:1, 23° C., 1 atmosphere, 2 minutes). Also, the “GC abundance in model diesel” value in data set [1] (setting [5]) was determined as 24.02 abundance units; in data set [1] (setting [7]), 7.81 abundance units; in data set [1] (setting [9]), 1.26 abundance units; in data set [2] (setting [5]), 24.02 abundance units; in data set [2] (setting [12]) it was 6.45 abundance units; in data set [2] (setting [14]) it was 1.38 abundance units. For the same compound, the “GC abundance in model diesel” value in data set [3] (setting [5]) worked out at 24.02 abundance units; in data set [3] (setting [16]), 11.64 abundance units. In addition, the “change” value is “(−67.5%)” in data set [1] (setting [6]); “(−94.8%)” in data set [1] (setting [8]); “(−73.1%)” in data set [2] (setting [11]); “(−94%)” in data set [2] (setting [13]); “(−51.5%)” in data set [3] (setting [15]).

Regarding `c1ccc2c(c1)sc1ccccc12` [DBT, dibenzothiophene], the co-extraction turned out to be 13.2 W % in data set [1] (50 W % aqueous acetic acid); 10 W % in data set [2] (70 W % aqueous formic acid, after both extractions); 3.1 W % in data set [3] (setting [17]). Further, the “GC abundance in model diesel” value in data set [1] (setting [5]) amounted to 24.44 abundance units; in data set [1] (setting [7]) it was 22.09 abundance units; in data set [1] (setting [9]), 21.22 abundance units; in data set [2] (setting [5]), 24.44 abundance units; in data set [2] (setting [12]), 21.89 abundance units; in data set [2] (setting [14]), 22 abundance units. Besides, the “GC abundance in model diesel” value came to 24.44 abundance units in data set [3] (setting [5]) and 23.69 abundance units in data set [3] (setting [16]). Further, the “change” value was “(−9.6%)” in data set [1] (setting [6]); “(−13.2%)” in data set [1] (setting [8]); “(−10.4%)” in data set [2] (setting [11]); “(−10.0%)” in data set [2] (setting [13]); “(−3.1%)” in data set [3] (setting [15]).

On to xylene, for which the co-extraction in data set [1] (50 W % aqueous acetic acid) is 1.9 W %; in data set [2] (70 W % aqueous formic acid, after the first extraction) it was 2 W %; in data set [3] (setting [17]) it was “no co-extraction”. The “GC abundance in model diesel” value amounted to 9283.7 abundance units in data set [1] (setting [5]); 9155.2 abundance units in data set [1] (setting [7]); 9108.19 abundance units in data set [1] (setting [9]); 9283.7 abundance units in data set [2] (setting [5]); 9111.6 abundance units in data set [2] (setting [12]); 9635.5 abundance units in data set [2] (setting [14]). Also, the “GC abundance in model diesel” value is 9283.7 abundance units in data set [3] (setting [5]) and 9540.4 abundance units in data set [3] (setting [16]). In addition, the “change” value is reported as “(−1.4%)” in data set [1] (setting [6]); “(−1.9%)” in data set [1] (setting [8]); “(−1.9%)” in data set [2] (setting [11]); “(+3.8%)” in data set [2] (setting [13]); “+2.8%)” in data set [3] (setting [15]). Besides, the “increase after the second extraction (normalized GC peak)” value in data set [2] (70 W % aqueous formic acid, after the second extraction) turned out to be 3.8 W %. Besides, the “amount increased after extraction (normalized GC results)” value in data set [3] (setting [17]) came to 2.8 W %.
